pIC50: −log10 of the molar value. Where two headings read alike, the source gives them in different places.
Key:
[1] = system: Serratia marcescens expressing IMP-1 (CL5741); experiment: Antibiotic potentiation activity: synergistic concentration (MITC95) with imipenem, growth by OD600; assay type: cell-based; conditions: 95% inhibition of bacterial growth, strain CL5741
Summary of the method: (§1)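 MITC95 = lowest inhibitor concentration giving 95% growth inhibition, read by absorbance after 22–24 h at 35° C. Compound range 200 μM to 0.195 μM, imipenem fixed at 1 or 4 μg/ml, bacteria in 1.1×CAMHB from saline suspension diluted 1:100.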

[2] = system: Escherichia coli expressing NDM-1 (CLB30016); experiment: as above; assay type: cell-based; conditions: 95% inhibition of bacterial growth, strain CLB30016
Summary of the method: as §1

[3] = system: Klebsiella pneumoniae expressing VIM-1 (IHMA599644); experiment: as above; assay type: cell-based; conditions: 95% inhibition of bacterial growth, strain IHMA599644
Summary of the method: as §1

NDM-1 = NDM-1 (Klebsiella pneumoniae, UniProt C7C422); experiment: Enzyme activity: determination of IC50, fluorescence assay with CCF2-FA substrate; assay type: biochemical; conditions: CCF2-FA 1.25 μM, 2 hours at 25° C.
Summary of the method: (§2)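 100 mM KH2PO4 pH 7 + 0.005% Tween-20 + 10 μM ZnSO4; CCF2-FA 1.25 μM; NDM-1 1 pM, IMP-1 2 pM, VIM-1 30 pM; cpd 20–0.00063 μM final, DMSO 1:50. 2 h, 25° C. Ex 405/em 460 nm; IC50, 4-param fit.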

IMP-1 = IMP-1 (Serratia marcescens, UniProt P52699); experiment: as above; assay type: biochemical; conditions: enzyme 2 pM, CCF2-FA 1.25 μM, 2 hours at 25° C.; read-out: IMP1 IC50
Summary of the method: as §2

VIM-1 = VIM-1 (Pseudomonas aeruginosa, UniProt A0A0F7KYQ8); experiment: as above; assay type: biochemical; conditions: enzyme 30 pM, CCF2-FA 1.25 μM, 2 hours at 25° C.; read-out: VIM1 IC50
Summary of the method: as §2

[4] = enzyme 1 pM, read-out: NDM1 IC50

Chain of NDM-1 (C7C422 29-270, looked up, species assumed): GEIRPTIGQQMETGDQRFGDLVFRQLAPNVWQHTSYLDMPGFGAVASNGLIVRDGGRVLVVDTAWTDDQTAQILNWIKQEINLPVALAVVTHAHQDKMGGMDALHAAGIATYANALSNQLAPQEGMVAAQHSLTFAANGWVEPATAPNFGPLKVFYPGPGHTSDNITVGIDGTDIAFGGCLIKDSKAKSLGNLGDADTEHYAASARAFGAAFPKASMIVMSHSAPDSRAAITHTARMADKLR
Chain of IMP-1 (P52699 19-246, looked up, species assumed): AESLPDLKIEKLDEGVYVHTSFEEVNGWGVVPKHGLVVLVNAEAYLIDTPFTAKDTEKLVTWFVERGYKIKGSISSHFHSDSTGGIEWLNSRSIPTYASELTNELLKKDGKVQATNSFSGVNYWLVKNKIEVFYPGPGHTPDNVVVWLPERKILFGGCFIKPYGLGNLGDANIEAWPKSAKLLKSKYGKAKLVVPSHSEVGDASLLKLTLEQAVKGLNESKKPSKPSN

Structure (SMILES)	IMP1 SM5741 MITC95 [1]	NDM1 EC30016 MITC95 [2]	VIM1 KP599644 MITC95 [3]	pIC50 (NDM-1; [4])	pIC50 (IMP-1)	pIC50 (VIM-1)	pIC50 (NDM-1; NDM1 IC50, enzyme 1 pM)
CCC[C@H](C(=O)O)[C@H](Cc1ccc(NC)cn1)c1nnn[nH]1 [Example 151]	100 µM	0.39 µM	12.5 µM	6.52	5.10	6.92	
CNc1ccc(C[C@H](c2nnn[nH]2)[C@@H](C(=O)O)C(C)C)cn1 [Example 152, (2S,3S)-2-isopropyl-4-(6-(methylamino)pyridin-3-yl)-3-(1H-tetrazol-5-yl)butanoic acid]	38 µM	0.39 µM	6.2 µM	7.21	5.28	7.54	
CCC[C@H](C(=O)O)[C@H](Cc1ccc(C(F)(F)F)cc1)c1nnn[nH]1 [Example 153, (S)-2-((S)-1-(1H-tetrazol-5-yl)-2-(4-(trifluoromethyl)phenyl)ethyl)pentanoic acid]	25 µM	9.4 µM	25 µM	7.24	6.29	8.68	
CCC[C@H](C(=O)O)[C@H](Cc1ccccn1)c1nn[nH]n1 [Example 154, (S)-2-((S)-2-(pyridin-2-yl)-1-(1H-tetrazol-5-yl)ethyl)pentanoic acid]	100 µM	0.78 µM	25 µM	6.37	4.89	6.85	
CCC[C@H](C(=O)O)[C@H](Cc1cccc2sc(N)nc12)c1nn[nH]n1 [Example 155, (S)-2-((S)-2-(2-aminobenzo[d]thiazol-4-yl)-1-(2H-tetrazol-5-yl)ethyl)pentanoic acid]	18.8 µM	16 µM	18.8 µM	7.92	6.54	8.14	
CCC[C@H](C(=O)O)[C@H](Cc1cnn2ncccc12)c1nnn[nH]1 [Example 156, (S)-2-((S)-2-(pyrazolo[1,5-b]pyridazin-3-yl)-1-(1H-tetrazol-5-yl)ethyl)pentanoic acid]	>200 µM	31 µM	25 µM	6.82	5.27	8.82	
CCC[C@H](C(=O)O)[C@H](Cc1ccc(O)nc1)c1nnn[nH]1 [Example 157, (S)-2-((S)-2-(6-hydroxypyridin-3-yl)-1-(1H-tetrazol-5-yl)ethyl)pentanoic acid]	>200 µM	18.8 µM	25 µM	6.14	4.92	8.07	
CCC[C@H](C(=O)O)[C@H](Cc1ccc(-c2ccc(C3(O)CNC3)cc2)nc1)c1nnn[nH]1 [Example 159, (2S)-2-[(1S)-2-{6-[4-(3-hydroxyazetidin-3-yl)phenyl]pyridin-3-yl}-1-(1H-tetrazol-5-yl)ethyl]pentanoic acid]	75 µM	12.5 µM	50 µM	6.40	5.43	7.64	
CCC[C@H](C(=O)O)[C@H](Cc1ccc(-c2cnc(NC(C)=O)nc2)nc1)c1nn[nH]n1 [Example 160, (2S)-2-[(1S)-2-{6-[2-(acetylamino)pyrimidin-5-yl]pyridin-3-yl}-1-(1H-tetrazol-5-yl)ethyl]pentanoic acid]	50 µM	38 µM	75 µM	7.30	5.80	8.24	
CCC[C@H](C(=O)O)[C@H](Cc1ccc(-c2cnc(N)nc2)nc1)c1nnn[nH]1 [Example 161, (2S)-2-[(1S)-2-[6-(2-aminopyrimidin-5-yl)pyridin-3-yl]-1-(1H-tetrazol-5-yl)ethyl]pentanoic acid]	18.8 µM	18.8 µM	50 µM	7.52	5.96	8.48	
CCC[C@H](C(=O)O)[C@H](Cc1ccc(-c2ccc3ccnc(C#N)c3c2)nc1)c1nnn[nH]1 [Example 162, (2S)-2-[(1S)-2-[6-(1-cyanoisoquinolin-7-yl)pyridin-3-yl]-1-(1H-tetrazol-5-yl)ethyl]pentanoic acid]	12.5 µM	75 µM	125 µM	7.66	6.25	8.43	
CCC[C@H](C(=O)O)[C@H](Cc1ccc(-c2cnc(N(C)C)nc2)nc1)c1nnn[nH]1 [Example 163, (2S)-2-[(1S)-2-{6-[2-(dimethylamino)pyrimidin-5-yl]pyridin-3-yl}-1-(1H-tetrazol-5-yl)ethyl]pentanoic acid]	16 µM	38 µM	125 µM	7.60	6.22	8.42	
CCC[C@H](C(=O)O)[C@H](Cc1ccc(C2=CCNC2)nc1)c1nnn[nH]1 [Example 164, (2S)-2-[(1S)-2-[6-(2,5-dihydro-1H-pyrrol-3-yl)pyridin-3-yl]-1-(1H-tetrazol-5-yl)ethyl]pentanoic acid]	50 µM	9.4 µM	18.8 µM	6.28	4.89	8.41	
CCC[C@H](C(=O)O)[C@H](Cc1ccc(C2=CCNCC2)cn1)c1nnn[nH]1 [Example 165, (2S)-2-[(1S)-2-(1′,2′,3′,6′-tetrahydro-3,4′-bipyridin-6-yl)-1-(1H-tetrazol-5-yl)ethyl]pentanoic acid]	150 µM	3.1 µM	25 µM		< 4.70	7.17	5.82
CCC[C@H](C(=O)O)[C@H](Cc1ccc(-c2ccc(C3(O)CNC3)cc2)cn1)c1nnn[nH]1 [Example 166, (2S)-2-[(1S)-2-{5-[4-(3-hydroxyazetidin-3-yl)phenyl]pyridin-2-yl}-1-(1H-tetrazol-5-yl)ethyl]pentanoic acid]	100 µM	9.4 µM	38 µM	6.30	5.03	6.77	
CCC[C@H](C(=O)O)[C@H](Cc1ccc(-c2ccc(N)nc2)cn1)c1nnn[nH]1 [Example 167, (2S)-2-[(1S)-2-(6′-amino-3,3′-bipyridin-6-yl)-1-(1H-tetrazol-5-yl)ethyl]pentanoic acid]	>200 µM	9.4 µM	100 µM	6.70	5.24	6.85	
CCC[C@H](C(=O)O)[C@H](Cc1ccc(-c2ccc3[nH]ncc3c2)cn1)c1nnn[nH]1 [Example 168, (2S)-2-[(1S)-2-[5-(1H-indazol-5-yl)pyridin-2-yl]-1-(1H-tetrazol-5-yl)ethyl]pentanoic acid]	200 µM	25 µM	>200 µM	7.00	5.52	7.28	
CCC[C@H](C(=O)O)[C@H](Cc1ccc(-c2ccc3c(c2)OCC(=O)N3)cn1)c1nnn[nH]1 [Example 169, (2S)-2-[(1S)-2-[5-(3-oxo-3,4-dihydro-2H-1,4-benzoxazin-7-yl)pyridin-2-yl]-1-(1H-tetrazol-5-yl)ethyl]pentanoic acid]	100 µM	18.8 µM	200 µM	7.06	5.80	7.42	
CC(C)C[C@H](C(=O)O)[C@H](Cc1ccc(C2=CCNCC2)cn1)c1nn[nH]n1 [Example 170, (2S)-4-methyl-2-[(1S)-2-(1′,2′,3′,6′-tetrahydro-3,4′-bipyridin-6-yl)-1-(2H-tetrazol-5-yl)ethyl]pentanoic acid]	50 µM	1.6 µM	12.5 µM		5.44	7.66	6.60
CC(C)C[C@H](C(=O)O)[C@H](Cc1ccc(-c2ccc(CO)cc2)cn1)c1nn[nH]n1 [Example 171, (2S)-2-[(1S)-2-{5-[4-(hydroxymethyl)phenyl]pyridin-2-yl}-1-(2H-tetrazol-5-yl)ethyl]-4-methylpentanoic acid]	62 µM	75 µM	200 µM	7.33	6.13	7.25	
CC(C)C[C@H](C(=O)O)[C@H](Cc1ccc(-c2ccc(N)nc2)cn1)c1nn[nH]n1 [Example 172, (2S)-2-[(1S)-2-(6′-amino-3,3′-bipyridin-6-yl)-1-(2H-tetrazol-5-yl)ethyl]-4-methylpentanoic acid]	38 µM	12.5 µM	50 µM	7.28	6.10	7.31	

From patent publication US9839642B2, “Beta-tetrazolyl-propionic acids as metallo-beta-lactamase inhibitors” (priority 2014, dated 2017)
